Results taken from US9884048B2, “ERK inhibitors” (Merck Sharp & Dohme Corp., priority 2014, dated 2018).

Molecular target: phosphorylated active hERK2 enzyme (Homo sapiens (Human), UniProt P28482)
Conditions: read-out: ERK2 IC50; IMAP-FP assay; 0.5 nM hERK2, 30 μM ATP; 10 point titration, 3 μM starting concentration
Method: Active Human ERK2 (hERK2) Activity Assay:
Activated ERK2 activity was determined in an IMAP-FP assay (Molecular Devices). […] The final reaction in each well of 25 μL consists of 0.5 nM hERK2, 900 nM unlabeled peptide, 80 nM labeled-peptide, and 30 μM ATP. Phosphorylation reactions were allowed to proceed for 60 minutes and were immediately quenched by the addition of 60 μL IMAP detection beads (1:1000 dilutions) in IMAP binding buffer (Molecular Devices) with 24 mM NaCl. Plates were read on EnVision reader after 60 minutes binding equilibration using Fluorescence Polarization protocol (Perkin Elmer).

Sequence of phosphorylated active hERK2 enzyme (P28482 whole entry): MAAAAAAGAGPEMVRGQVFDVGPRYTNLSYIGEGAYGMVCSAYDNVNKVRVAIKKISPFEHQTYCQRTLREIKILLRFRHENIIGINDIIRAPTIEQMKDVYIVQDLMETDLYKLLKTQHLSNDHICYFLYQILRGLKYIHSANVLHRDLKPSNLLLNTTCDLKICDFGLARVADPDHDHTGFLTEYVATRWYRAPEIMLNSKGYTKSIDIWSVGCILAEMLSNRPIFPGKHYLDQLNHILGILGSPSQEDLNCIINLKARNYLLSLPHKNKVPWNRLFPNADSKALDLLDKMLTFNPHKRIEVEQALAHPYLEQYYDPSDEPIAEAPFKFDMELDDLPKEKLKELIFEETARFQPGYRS

Structure (SMILES)	IC50
CCN(CC)C(=O)[C@@H](NC(=O)Nc1cc2cnn(-c3ccnc(C)c3)c2cn1)c1ccccc1 [Example 144, (2S)-N,N-diethyl-2-({[1-(2-methylpyridin-4-yl)-1H-pyrazolo[3,4-c]pyridin-5-yl]carbamoyl}amino)-2-phenylethanamide]	89.3 nM
Cc1cc(-n2ncc3cc(NC(=O)NC4CCN(c5ccccc5)CC4)ncc32)ccn1 [Example 78, 1-[1-(2-methylpyridin-4-yl)-1H-pyrazolo[3,4-c]pyridin-5-yl]-3-(1-phenylpiperidin-4-yl)urea]	1740 nM
C[C@@H](NC(=O)Nc1cc2cnn(-c3ccc(F)cc3)c2c(COCCO)n1)c1ccccc1 [Example 246, 1-{1-(4-fluorophenyl)-7-[(2-hydroxyethoxy)methyl]-1H-pyrazolo[3,4-c]pyridin-5-yl}-3-[(1R)-1-phenylethyl]urea]	52.2 nM
Cc1cc(-n2ncc3cc(NC(=O)NCCN(C)C)ncc32)ccn1 [Example 15, 1-(2-(dimethylamino)ethyl)-3-(1-(2-methylpyridin-4-yl)-1H-pyrazolo[3,4-c]pyridin-5-yl)urea]	1430 nM
Cc1cc(-n2ncc3cc(NC(=O)NCc4cnn5ccccc45)ncc32)ccn1 [Example 64, 1-[1-(2-methylpyridin-4-yl)-1H-pyrazolo[3,4-c]pyridin-5-yl]-3-(pyrazolo[1,5-a]pyridin-3-ylmethyl)urea]	71.6 nM
COCCNC(=O)Nc1cc2cnn(-c3ccnc(C)c3)c2cn1 [Example 111, 1-(2-methoxyethyl)-3-[1-(2-methylpyridin-4-yl)-1H-pyrazolo[3,4-c]pyridin-5-yl)urea]	81.8 nM
Cc1cc(-n2ncc3cc(NC(=O)N[C@@H](c4ccccc4)C(F)F)ncc32)ccn1 [Example 81, 1-[(1S)-2,2-difluoro-1-phenylethyl]-3-[1-(2-methylpyridin-4-yl)-1H-pyrazolo[3,4-c]pyridin-5-yl)urea]	914 nM
Cc1cc(-n2ncc3cc(NC(=O)N[C@H]4CCCC[C@@H]4N)ncc32)ccn1 [Example 138, 1-[(1S,2S)-2-aminocyclohexyl]-3-[1-(2-methylpyridin-4-yl)-1H-pyrazolo[3,4-c]pyridin-5-yl]urea]	396 nM
Cc1cc(-n2ncc3cc(NC(=O)N[C@H]4CN(C)C[C@@H]4C4CC4)ncc32)ccn1 [Example 30, 1-[(3R,4S)-4-cyclopropyl-1-methylpyrrolidin-3-yl]-3-[1-(2-methylpyridin-4-yl)-1H-pyrazolo[3,4-c]pyridin-5-yl]urea]	110 nM
Cc1cc(-n2ncc3cc(NC(=O)NCCN4CCOCC4)ncc32)ccn1 [Example 109, 1-[1-(2-methylpyridin-4-yl)-1H-pyrazolo[3,4-c]pyridin-5-yl]-3-(2-morpholin-4-ylethyl)urea]	627 nM
Cc1cc(-n2ncc3cc(NC(=O)N[C@@H]4CN(C)C[C@H]4c4cccnc4)ncc32)ccn1 [Example 112, 1-[1-(2-methylpyridin-4-yl)-1H-pyrazolo[3,4-c]pyridin-5-yl]-3-[(3S,4R)-1-methyl-4-pyridin-3-ylpyrrolidin-3-yl)urea]	48.7 nM
CO[C@H]1CN(C)C[C@@H]1NC(=O)Nc1cc2cnn(-c3ccnc(C)c3)c2cn1 [Example 193, 1-[(3S,4S)-4-methoxy-1-methylpyrrolidin-3-yl]-3-[1-(2-methylpyridin-4-yl)-1H-pyrazolo[3,4-c]pyridin-5-yl]urea]	2530 nM
Cc1cc(-n2ncc3cc(NC(=O)N[C@H](C)c4ccccc4)nc(CNCCN(C)C)c32)ccn1 [Example 322, 1-[7-({[2-(dimethylamino)ethyl]amino}methyl)-1-(2-methylpyridin-4-yl)-1H-pyrazolo[3,4-c]pyridin-5-yl]-3-[(1R)-1-phenylethyl]urea]	86.6 nM
Cc1cc(-n2ncc3cc(NC(=O)NCc4ccc(-n5cccn5)cc4)ncc32)ccn1 [Example 76, 1-[1-(2-methylpyridin-4-yl)-1H-pyrazolo[3,4-c]pyridin-5-yl]-3-[4-(1H-pyrazol-1-yl)benzyl]urea]	1110 nM
C=CC(=O)NC[C@@H](NC(=O)Nc1cc2cnn(C)c2cn1)c1ccccc1 [Example 328, N-[(2S)-2-{[(1-Methyl-1H-pyrazolo[3,4-c]pyridin-5-yl)carbamoyl]amino}-2-phenylethyl]prop-2-enamide]	796 nM

Stronger by IC50, values ahead:

IC50	Structure (SMILES)
26.5 nM	Cc1cc(-n2ncc3cc(NC(=O)NCC4CN(c5ccccc5)CCO4)ncc32)ccn1 (stereo not drawn) [Example 79, 1-[1-(2-methylpyridin-4-yl)-1H-pyrazolo[3,4-c]pyridin-5-yl]-3-[(4-phenylmorpholin-2-yl)methyl]urea]
22.2 nM	Cc1cc(-n2ncc3cc(NC(=O)NC4CCCN(Cc5nccs5)C4)ncc32)ccn1 (stereo not drawn) [Example 267, 1-[1-(2-methylpyridin-4-yl)-1H-pyrazolo[3,4-c]pyridin-5-yl]-3-[1-(1,3-thiazol-2-ylmethyl)piperidin-3-yl]urea]
19.8 nM	O=C(NCc1ccccc1)Nc1cc2cnn(-c3ccc(F)cc3)c2cn1 [Example 37, 1-benzyl-3-[1-(4-fluorophenyl)-1H-pyrazolo[3,4-c]pyridin-5-yl)urea]
19.1 nM	Cc1cc(-n2ncc3cc(NC(=O)NCCNCc4ccccc4)ncc32)ccn1 [Example 96, 1-[2-(benzylamino)ethyl]-3-[1-(2-methylpyridin-4-yl)-1H-pyrazolo[3,4-c]pyridin-5-yl]urea]
18.1 nM	CCn1ncc2cc(NC(=O)N[C@H](C)c3ccccc3)nc(CO)c21 [Example 299, 1-[1-Ethyl-7-(hydroxymethyl)-1H-pyrazolo[3,4-c]pyridin-5-yl]-3-[(1R)-1-phenylethyl]urea]
17.8 nM	Cc1cc(-n2ncc3cc(NC(=O)NC4CC(c5ccccc5)CN(C)C4)ncc32)ccn1 (stereo not drawn) [Example 290, 1-(1-methyl-5-phenylpiperidin-3-yl)-3-[1-(2-methylpyridin-4-yl)-1H-pyrazolo[3,4-c]pyridin-5-yl]urea]
17.7 nM	Cc1cc(-n2ncc3cc(NC(=O)NCC4(c5ccccc5)CCOC4)ncc32)ccn1 (stereo not drawn) [Example 69, 1-[1-(2-methylpyridin-4-yl)-1H-pyrazolo[3,4-c]pyridin-5-yl]-3-[(3-phenyltetrahydrofuran-3-yl)methyl]urea]
16.2 nM	O=C(NCCc1ccccc1)Nc1cc2cnn(-c3ccncc3)c2cn1 [Example 8, 1-(2-phenylethyl)-3-(1-pyridin-4-yl-1H-pyrazolo[3,4-c]pyridin-5-yl)urea]
16.2 nM	C[C@@H](NC(=O)Nc1cc2cnn(-c3ccncc3)c2cn1)c1ccc(F)cc1 [Example 7, 1-[(1R)-1-(4-fluorophenyl)ethyl]-3-(1-pyridin-4-yl-1H-pyrazolo[3,4-c]pyridin-5-yl)urea]
13.4 nM	Cc1cc(-n2ncc3cc(NC(=O)N[C@H]4CCC[C@@H]4Oc4ccccc4)ncc32)ccn1 [Example 161, 1-[1-(2-methylpyridin-4-yl)-1H-pyrazolo[3,4-c]pyridin-5-yl]-3-[(1S,2S)-2-phenoxycyclopentyl]urea]
11.7 nM	Cc1cc(-n2ncc3cc(NC(=O)N[C@@H]4CN(C)C[C@H]4c4ccccc4C)ncc32)ccn1 [Example 190, 1-[(3S,4R)-1-methyl-4-(2-methylphenyl)pyrrolidin-3-yl]-3-[1-(2-methylpyridin-4-yl)-1H-pyrazolo[3,4-c]pyridin-5-yl]urea]
10.9 nM	Cc1cc(-n2ncc3cc(NC(=O)NC(C)c4csc(C)n4)ncc32)ccn1 (stereo not drawn) [Example 131, 1-[1-(2-methylpyridin-4-yl)-1H-pyrazolo[3,4-c]pyridin-5-yl]-3-[1-(2-methyl-1,3-thiazol-4-yl)ethyl]urea]
7.09 nM	Cc1cc(-n2ncc3cc(NC(=O)NCC4(c5ccccc5)CCOCC4)ncc32)ccn1 [Example 52, 1-[1-(2-methylpyridin-4-yl)-1H-pyrazolo[3,4-c]pyridin-5-yl]-3-[(4-phenyltetrahydro-2H-pyran-4-yl)methyl]urea]
2.15 nM	Cc1cc(-n2ncc3cc(NC(=O)N[C@@H]4CN(C)[C@@H](C)[C@H]4c4ccccc4C)ncc32)ccn1 [Example 105, 1-[(3S,4S,5S)-1,5-dimethyl-4-(2-methylphenyl)-pyrrolidin-3-yl]-3-[1-(2-methylpyridin-4-yl)-1H-pyrazolo[3,4-c]pyridin-5-yl)urea]
1.44 nM	Cc1cc(-n2ncc3cc(NC(=O)NCc4cccc(S(C)(=O)=O)c4)ncc32)ccn1 [Example 93, 1-[1-(2-methylpyridin-4-yl)-1H-pyrazolo[3,4-c]pyridin-5-yl]-3-[3-(methylsulfonyl)-benzyl]urea]
1.01 nM	Cc1cc(-n2ncc3cc(NC(=O)N[C@@H]4CN(C)C[C@H]4c4ccc(C)s4)ncc32)ccn1 [Example 124, 1-[(3S,4R)-1-methyl-4-(5-methylthiophen-2-yl)pyrrolidin-3-yl]-3-[1-(2-methylpyridin-4-yl)-1H-pyrazolo[3,4-c]pyridin-5-yl)urea]
0.99 nM	Cn1ncc2ccc(-n3ncc4cc(NC(=O)N[C@@H](c5ccccc5)C(C)(C)O)ncc43)cc21 [Example 206, 1-[(1S)-2-hydroxy-2-methyl-1-phenylpropyl]-3-[1-(1-methyl-1H-indazol-6-yl)-1H-pyrazolo[3,4-c]pyridin-5-yl]urea]
0.952 nM	Cc1cc(-n2ncc3cc(NC(=O)N[C@H](C)c4cccc(Cl)c4)ncc32)ccn1 [Example 43, 1-[(1R)-1-(3-chlorophenyl)ethyl]-3-[1-(2-methylpyridin-4-yl)-1H-pyrazolo[3,4-c]pyridin-5-yl]urea]
0.821 nM	Cc1cc(-n2ncc3cc(NC(=O)N[C@H](CCO)c4ccccc4)ncc32)ccn1 [Example 89, 1-[(1R)-3-hydroxy-1-phenylpropyl]-3-[1-(2-methylpyridin-4-yl)-1H-pyrazolo[3,4-c]pyridin-5-yl)urea]
0.558 nM	Cc1cc(-n2ncc3cc(NC(=O)N[C@@H](c4ccccc4)C(C)(C)O)ncc32)ccn1 [Example 292, (S)-1-(2-methyl-2-hydroxy-1-phenylpropyl)-3-(1-(2-methylpyridin-4-yl)-1H-pyrazolo[3,4-c]pyridin-5-yl)urea]
0.323 nM	Cc1cc(-n2ncc3cc(NC(=O)N[C@@H]4CCN(Cc5c(F)cccc5F)C4)ncc32)ccn1 [Example 283, 1-[(3R)-1-(2,6-difluorobenzyl)pyrrolidin-3-yl]-3-[1-(2-methylpyridin-4-yl)-1H-pyrazolo[3,4-c]pyridin-5-yl]urea]
